Measurements taken from US8569302B2, “Inhibitors of flaviviridae viruses” (Gilead Sciences, Inc., priority 2009, dated 2013).

tested on: human hepatoma Huh-7 cell line harboring a HCV replicon; experiment: HCV replicon assay (inhibition of viral replication, luciferase readout); format: cell-based; details: Hepatitis C virus, 72 h, Huh-7 HCV replicon cells, 3 days incubation
Protocol: The anti-HCV activity of the compounds of this invention was tested in a human hepatoma Huh-7 cell line harboring a HCV replicon. The assay comprised the following steps:
Step 1: Compound Preparation and Serial Dilution.
Serial dilution was performed in 100% DMSO in a 384-well plate. A solution containing a compound at 225-fold concentration of the starting final serial dilution concentration was prepared in 100% DMSO and 15 μL added to the pre-specified wells in column 3 or 13 of a polypropylene 384-well plate. The rest of the 384-well plate was filled with 10 μL 100% DMSO except for columns 23 and 24, where 10 μL of 500 μM a HCV protease inhibitor (ITMN-191) in 100% DMSO was added. The HCV protease inhibitor was used a control of 100% inhibition of HCV replication. The plate was then placed on a Biomek FX Workstation to start the serial dilution. The serial dilution was performed for ten cycles of 3-fold dilution from column 3 to 12 or from column 13 to 22.
Step 2: Cell Culture Plate Preparation and Compound Addition
To each well of a black polypropylene 384-well plate, 90 μL of cell media containing 1600 suspended Huh-7 HCV replicon cells was added with a Biotek uFlow Workstation. A volume of 0.4 μL of the compound solution was transferred from the serial dilution plate to the cell culture plate on a Biomek FX Workstation. The DMSO concentration in the final assay condition was 0.44%. The plates were incubated for 3 days at 37° C. with 5% CO2 and 85% humidity.
Step 3: Detection of Cytotoxicity and Inhibition of Viral Replication
a) Assessment of cytotoxicity: The media in the 384-well cell culture plate was aspirated with a Biotek EL405 plate-washer. A volume of 50 μL of a solution containing 400 nM Calcein AM in 100% PBS was added to each well of the plate with a Biotek uFlow Workstation. The plate was incubated for 30 minutes at room temperature before the fluorescence signal ([…]) was measured with a Perkin Elmer Envision Plate Reader.
b) Assessment of inhibition of viral replication: The calcein-PBS solution in the 384-well cell culture plate was aspirated with a Biotek EL405 plate-washer. A volume of 20 μL of Dual-Glo luciferase buffer (Promega, Dual-Glo Luciferase Assay Reagent, cat. #E298B) was added to each well of the plate with a Biotek uFlow Workstation. The plate was incubated for 10 minutes at room temperature. A volume of 20 μL of a solution containing 1:100 mixture of Dual-Glo Stop & Glo substrate (Promega, Dual-Glo Luciferase Assay Reagent, cat. #E313B) and Dual-Glo Stop & Glo buffer (Promega, Dual-Glo Luciferase Assay Reagent, cat. #E314B) was then added to each well of the plate with a Biotek uFlow Workstation. The plate was incubated at room temperature for 10 minutes before the luminescence signal was measured with a Perkin Elmer Envision Plate Reader.
The percent cytotoxicity was determined by calcein AM conversion to fluorescent product. The average fluorescent signal from the DMSO control wells was defined as 100% nontoxic. The individual fluorescent signal from testing compound treated well was divided by the average signal from DMSO control wells and then multiplied by 100% to get the percent viability. The percent anti-HCV replication activity was determined by the luminescence signal from the testing well compared to DMSO control wells. The background signal was determined by the average luminescence signal from the HCV protease inhibitor treated wells and was subtracted from the signal from the testing wells as well as the DMSO control wells. Following 3-fold serial dilutions, the EC50 and CC50 values were calculated by fitting % inhibition at each concentration to the following equation: % inhibition=100%/[EC50/[I])^b+1]
Where b is Hill's coefficient. See, for reference, Hill, A. V., The Possible Effects of the Aggregation of the Molecules of Hæmoglobin on its Dissociation Curves, J. Physiol. 40: iv-vii. (1910). […]

Point of comparison: `CC1CCC(C(=O)N(c2cc(C#CC(C)(C)C)sc2C(=O)O)[C@H]2CC[C@H](Oc3ccnc4ccccc34)CC2)CC1` (stereo partly drawn) [Compound 25, 5-(3,3-Dimethyl-but-1-ynyl)-3-{(4-methyl-cyclohexanecarbonyl)-[4-(quinolin-4-yloxy)-cyclohexyl]-amino}-thiophene-2-carboxylic acid], inhibition at 2 µM 99.3%. Against it:
- CC(C)(C)C#Cc1cc(N(C(=O)[C@H]2CC[C@H](C)CC2)[C@H]2C[C@H](Oc3ncccn3)C2)c(C(=O)O)s1 [Compound 23, 5-(3,3-Dimethyl-but-1-ynyl)-3-{(trans-4-methyl-cyclohexanecarbonyl)-[trans-3-(pyrimidin-2-yloxy)-cyclobutyl]-amino}-thiophene-2-carboxylic acid] — higher, 99.5%
- CCc1cc(O[C@H]2CC[C@H](N(C(=O)C3CCC(C)CC3)c3cc(C#CC(C)(C)C)sc3C(=O)O)CC2)cc(CC)n1 (stereo partly drawn) [Compound 26, 3-[[4-(2,6-diethyl-pyridin-4-yloxy)-cyclohexyl]-(4-methyl-cyclohexanecarbonyl)-amino]-5-(3,3-Dimethyl-but-1-ynyl)-thiophene-2-carboxylic acid] — higher, 99.8%
- CC(C)(C)C#Cc1cc(N(C(=O)[C@H]2CC[C@H](C)CC2)[C@H]2CC[C@H](Oc3cc(CN4CCCC4)ccn3)CC2)c(C(=O)O)s1 [Compound 27, 5-(3,3-Dimethyl-but-1-ynyl)-3-{(trans-4-methyl-cyclohexanecarbonyl)-[trans-4-(4-pyrrolidin-1-ylmethyl-pyridin-2-yloxy)-cyclohexyl]-amino}-thiophene-2-carboxylic acid] — higher, 100%
- CC1CCC(C(=O)N(c2cc(C#CC(C)(C)C)sc2C(=O)O)[C@H]2CC[C@H](Oc3cc(CN4CCOCC4)ccn3)CC2)CC1 (stereo partly drawn) [Compound 28, 5-(3,3-Dimethyl-but-1-ynyl)-3-{(4-methyl-cyclohexanecarbonyl)-[4-(4-morpholin-4-ylmethyl-pyridin-2-yloxy)-cyclohexyl]-amino}-thiophene-2-carboxylic acid] — higher, 99.7%
- CC1CCC(C(=O)N(c2cc(C#CC(C)(C)C)sc2C(=O)O)[C@H]2CC[C@H](Oc3cc(CN(C)C)ccn3)CC2)CC1 (stereo partly drawn) [Compound 29, 3-[[-4-(4-dimethylaminomethyl-pyridin-2-yloxy)-cyclohexyl]-(4-methyl-cyclohexanecarbonyl)-amino]-5-(3,3-Dimethyl-but-1-ynyl)-thiophene-2-carboxylic acid] — higher, 100%
- CC1CCC(C(=O)N(c2ccc(Oc3ccccn3)cc2)c2cc(C#CC(C)(C)C)sc2C(=O)O)CC1 (stereo not drawn) [Compound 30, 5-(3,3-Dimethyl-but-1-ynyl)-3-{(4-methyl-cyclohexanecarbonyl)-[4-(pyridin-2-yloxy)-phenyl]-amino}-thiophene-2-carboxylic acid] — lower, 70.7%
- C[C@@H](CCOc1cccnc1)N(c1cc(C#CC(C)(C)C)sc1C(=O)O)C(=O)[C@H]1CC[C@H](C)CC1 [Compound 58] — higher, 99.9%
- C[C@@H](CCOc1ncccn1)N(c1cc(C#CC(C)(C)C)sc1C(=O)O)C(=O)[C@H]1CC[C@H](C)CC1 [Compound 59] — higher, 99.9%
- C[C@@H](CCOc1ccccn1)N(c1cc(C#CC(C)(C)C)sc1C(=O)O)C(=O)[C@H]1CC[C@H](C)CC1 [Compound 60] — lower, 97.5%
- C[C@@H](CCOc1cc(CN(C)C)ccn1)N(c1cc(C#CC(C)(C)C)sc1C(=O)O)C(=O)[C@H]1CC[C@H](C)CC1 [Compound 61, 3-[[3-(4-dimethylaminomethyl-pyridin-2-yloxy)-1-(S)-methyl-propyl]-(trans-4-methyl-cyclohexanecarbonyl)-amino]-5-(3,3-dimethyl-but-1-ynyl)-thiophene-2-carboxylic acid] — higher, 99.9%
- C[C@@H](CCOc1cc(CN2CCCC2)ccn1)N(c1cc(C#CC(C)(C)C)sc1C(=O)O)C(=O)[C@H]1CC[C@H](C)CC1 [Compound 62, 5-(3,3-dimethyl-but-1-ynyl)-3-[(trans-4-methyl-cyclohexanecarbonyl)-[1-(S)-methyl-3-(4-pyrrolidin-1-yl-methyl-pyridin-2-yloxy)-propyl]-amino]-thiophene-2-carboxylic acid] — higher, 100%
- C[C@@H](CCOc1ccc(O)nn1)N(c1cc(C#CC(C)(C)C)sc1C(=O)O)C(=O)[C@H]1CC[C@H](C)CC1 [Compound 63, 5-(3,3-dimethyl-but-1-ynyl)-3-[[3-(6-hydroxy-pyridazin-3-yloxy)-1-(S)-methyl-propyl]-(trans-4-methyl-cyclohexanecarbonyl)-amino]-thiophene-2-carboxylic acid] — higher, 100%
- Cn1cnnc1S[C@H]1CC[C@H](N(c2cc(C#CC(C)(C)C)sc2C(=O)O)C(=O)[C@H]2CC[C@H](C)CC2)CC1 [Compound 84, 5-(3,3-dimethylbut-1-ynyl)-3-(4-methyl-N-(4-(4-methyl-4H-1,2,4-triazol-3-ylthio)cyclohexyl)cyclohexanecarboxamido)thiophene-2-carboxylic acid] — higher, 99.9%
- Cn1cnnc1S[C@H]1CC[C@@H](N(c2cc(C#CC(C)(C)C)sc2C(=O)O)C(=O)[C@H]2CC[C@H](C)CC2)CC1 [Compound 85, 5-(3,3-dimethylbut-1-ynyl)-3-(4-methyl-N-(4-(4-methyl-4H-1,2,4-triazol-3-ylthio)cyclohexyl)cyclohexanecarboxamido)thiophene-2-carboxylic] — higher, 99.6%
- CC(C)(C)C#Cc1cc(N(C(=O)[C@H]2CC[C@H](C)CC2)[C@H]2CC[C@H](Sc3nncs3)CC2)c(C(=O)O)s1 [Compound 86, 3-(N-(4-(1,3,4-Thiadiazol-2-ylthio)cyclohexyl)-4-methylcyclohexanecarboxamido)-5-(3,3-dimethylbut-1-ynyl)thiophene-2-carboxylic acid] — higher, 100%
- CC(C)(C)C#Cc1cc(N(C(=O)[C@H]2CC[C@H](C)CC2)[C@H]2CC[C@H](Sc3ccncc3)CC2)c(C(=O)O)s1 [Compound 87, 5-(3,3-Dimethylbut-1-ynyl)-3-(4-methyl-N-(4-(pyridin-4-ylthio)cyclohexyl)cyclohexanecarboxamido)thiophene-2-carboxylic acid] — higher, 99.5%
- CC(C)(C)C#Cc1cc(N(C(=O)[C@H]2CC[C@H](C)CC2)[C@H]2CC[C@H](Sc3cccc[n+]3[O-])CC2)c(C(=O)O)s1 [Compound 88] — lower, 98.5%
- CCn1ccnc1S[C@H]1CC[C@H](N(c2cc(C#CC(C)(C)C)sc2C(=O)O)C(=O)[C@H]2CC[C@H](C)CC2)CC1 [Compound 89, 5-(3,3-Dimethylbut-1-ynyl)-3-(N-(4-(1-ethyl-1H-imidazol-2-ylthio)cyclohexyl)-4-methylcyclohexanecarboxamido)thiophene-2-carboxylic acid] — higher, 99.4%
- CC(C)(C)C#Cc1cc(N(C(=O)[C@H]2CC[C@H](C)CC2)[C@H]2CC[C@H](Sc3nncn3C3CC3)CC2)c(C(=O)O)s1 [Compound 90, 3-(N-(4-(4-Cyclopropyl-4H-1,2,4-triazol-3-ylthio)cyclohexyl)-4-methylcyclohexanecarboxamido)-5-(3,3-dimethylbut-1-ynyl)thiophene-2-carboxylic acid] — higher, 100%
- CC(C)(C)C#Cc1cc(N(C(=O)[C@H]2CC[C@H](C)CC2)[C@H]2CC[C@H](Sc3ccc4ccccc4n3)CC2)c(C(=O)O)s1 [Compound 91, 5-(3,3-Dimethylbut-1-ynyl)-3-(4-methyl-N-(4-(quinolin-2-ylthio)cyclohexyl)cyclohexanecarboxamido)thiophene-2-carboxylic acid] — higher, 99.8%
